Article PMC12066977, “Alkyl Tail Variation on Chalcone‐Based Quaternary Pyridinium Salts as Rule‐of‐Thumb for Antimicrobial Activity” (Archiv Der Pharmazie, 2025)

What was measured:
[1] = system: human red blood cells (hRBCs); test: Hemolytic activity assay; format: cell-based; conditions: 25 µM, 90 min, 37°C
Procedure: The hemolytic activity of some selected compounds was evaluated as the amount of hemoglobin released by the disruption of human red blood cells (hRBCs). For the experiments, fresh hRBCs were collected by centrifugation at 1500g for 10 min, washed three times with PBS, and resuspended to a final concentration of 4% w/v hRBCs in PBS. Then, 100 µL of hRBCs suspension and an equal volume of the twofold dilutions of the antimicrobial peptides were mixed in a 96‐well plate and incubated for 90 min at 37°C. After centrifugation at 1000g for 5 min, the supernatants were transferred into a clear 96‐well plate, and OD405nm was read. Untreated hRBCs (incubated with PBS) and hRBCs incubated with 1% Triton X‐100 were employed as negative and positive controls, respectively. The hemolysis percentage was calculated as [OD405nm (sample) − OD4_05nm (negative control)]/[OD405nm (positive control) − OD405nm (negative control)] × 100. Minimal hemolytic concentrations (MHCs) were defined as the compound concentration causing 10% hemolysis. Three independent experiments were performed in triplicate.

[2] = system: C. albicans biofilm; test: Inhibition of biofilm formation (crystal violet staining); format: cell-based, Candida albicans; conditions: 3.125 µM; 24 h, CV staining
Procedure: The ability of some selected compounds to inhibit biofilm formation was assessed by established protocols with minor modifications. In short, exponential cultures of S. aureus, E. coli, and C. albicans grown in Tryptic Soy broth (TSB, Sigma‐Aldrich, St. Louis, MO, USA) were adjusted to a final density of 10^5 CFU/mL. Aliquots of 100 µL of the microbial cultures were transferred to a 96‐well flat‐bottom polystyrene microplate, and then incubated at 37°C for 90 min to promote bacterial adhesion. Thereafter, wells were slowly rinsed with PBS to remove nonattached cells, and 100 µL of TSB supplemented with 1% glucose containing the twofold serial dilutions of the compounds was added. After incubation at 37°C for 24 h, the free‐floating cells were removed, and the biofilms were carefully washed with PBS. The biomass was quantified by a standardized crystal violet (CV) staining. Briefly, 100 µL of CV solution (0.1% in water) was added to each well containing a completely air‐dried biofilm, and incubated for 30 min at 37°C. […] Finally, the colored supernatants were transferred to a new microplate, and the OD550nm was measured. The percentage inhibition of biofilm formation in the different experimental conditions was calculated relative to the biofilm mass formed in the absence of compounds (positive control).

C#CCOc1ccc(C(=O)/C=C/c2ccc[n+](CCCCCCCCCCCCCC)c2)c(OCC#C)c1.[Br-] [Compound 6, (E)‐3‐{3‐[2,4‐Bis(prop‐2‐yn‐1‐yloxy)phenyl]‐3‐oxoprop‐1‐en‐1‐yl}‐1‐tetradecylpyridin‐1‐ium bromide]
hemolytic activity [1]: 88.7%
reduction in C. albicans biofilm formation [2]: 68.3%
